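Exposure lasted 48 hours, with cells grown in 96-well plates and compounds tested at five concentrations. At the TGI there is no net growth.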
Assays:
Assay in all cases: DTP human tumour cell line panel, 48 h
LOX IMVI melanoma = test system: LOX IMVI melanoma
T-47D breast = test system: T-47D breast
NCI-H226 lung = test system: NCI-H226 lung
HCT-116 colon = test system: HCT-116 colon
UACC-257 melanoma = test system: UACC-257 melanoma
UACC-62 melanoma = test system: UACC-62 melanoma
HS 578T breast = test system: HS 578T breast
MDA-MB-435 = test system: MDA-MB-435
UO-31 renal = test system: UO-31 renal
OVCAR-4 ovarian = test system: OVCAR-4 ovarian
HCT-15 colon = test system: HCT-15 colon
SNB-75 CNS = test system: SNB-75 CNS
OVCAR-3 ovarian = test system: OVCAR-3 ovarian
TK-10 renal = test system: TK-10 renal
MALME-3M melanoma = test system: MALME-3M melanoma
SR leukemia = test system: SR leukemia
SW-620 colon = test system: SW-620 colon
SF-539 CNS = test system: SF-539 CNS
CCRF-CEM leukemia = test system: CCRF-CEM leukemia
CAKI-1 renal = test system: CAKI-1 renal
SK-MEL-5 melanoma = test system: SK-MEL-5 melanoma
MDA-MB-231 breast = test system: MDA-MB-231 breast
786-0 renal = test system: 786-0 renal
HOP-92 NSCLC = test system: HOP-92 NSCLC
SK-OV-3 ovarian = test system: SK-OV-3 ovarian
BT-549 breast = test system: BT-549 breast
HT29 colon = test system: HT29 colon
MOLT-4 leukemia = test system: MOLT-4 leukemia
KM12 colon = test system: KM12 colon
A549 NSCLC = test system: A549 NSCLC
EKVX NSCLC = test system: EKVX NSCLC
NCI/ADR-RES ovarian = test system: NCI/ADR-RES ovarian
NCI-H460 lung = test system: NCI-H460 lung
OVCAR-5 ovarian = test system: OVCAR-5 ovarian
SK-MEL-28 melanoma = test system: SK-MEL-28 melanoma
SNB-19 CNS = test system: SNB-19 CNS
IGROV1 ovarian = test system: IGROV1 ovarian
U251 CNS = test system: U251 CNS
COLO 205 colon = test system: COLO 205 colon
NCI-H522 lung = test system: NCI-H522 lung
OVCAR-8 ovarian = test system: OVCAR-8 ovarian
MCF7 breast = test system: MCF7 breast
SF-268 CNS = test system: SF-268 CNS
RPMI-8226 leukemia = test system: RPMI-8226 leukemia
K-562 leukemia = test system: K-562 leukemia
SF-295 CNS = test system: SF-295 CNS
HCC-2998 colon = test system: HCC-2998 colon
MDA-N = test system: MDA-N
PC-3 prostate = test system: PC-3 prostate
A498 renal = test system: A498 renal
HOP-62 NSCLC = test system: HOP-62 NSCLC
NCI-H23 lung = test system: NCI-H23 lung
DU-145 prostate = test system: DU-145 prostate
SN12C renal = test system: SN12C renal
HL-60(TB) leukemia = test system: HL-60(TB) leukemia
SK-MEL-2 melanoma = test system: SK-MEL-2 melanoma
RXF 393 renal = test system: RXF 393 renal
ACHN renal = test system: ACHN renal
M14 melanoma = test system: M14 melanoma

## O=C(c1c2c(cc3c1CC1(Cc4cc5c(cc4C1)CCCC5)C3)CCCC2)C(Br)Br
LOX IMVI melanoma
  TGI: 3.42 µM
T-47D breast
  TGI: 27.9 µM
NCI-H226 lung
  TGI: 14.3 µM
HCT-116 colon
  TGI: 29.1 µM
UACC-257 melanoma
  TGI: 41.9 µM
UACC-62 melanoma
  TGI: 34.3 µM
HS 578T breast
  TGI: > 70.2 µM
MDA-MB-435
  TGI: 28.7 µM
UO-31 renal
  TGI: 26.8 µM
OVCAR-4 ovarian
  TGI: 41.6 µM
HCT-15 colon
  TGI: 33 µM
SNB-75 CNS
  TGI: 31.7 µM
OVCAR-3 ovarian
  TGI: 38.9 µM
TK-10 renal
  TGI: 30.9 µM
MALME-3M melanoma
  TGI: 10.7 µM
SR leukemia
  TGI: 8.05 µM
SW-620 colon
  TGI: 20.5 µM
SF-539 CNS
  TGI: 38.3 µM
CCRF-CEM leukemia
  TGI: 5.14 µM
CAKI-1 renal
  TGI: 24.2 µM
SK-MEL-5 melanoma
  TGI: 14.4 µM
MDA-MB-231 breast
  TGI: 38.2 µM
786-0 renal
  TGI: 29.1 µM
HOP-92 NSCLC
  TGI: 31.9 µM
SK-OV-3 ovarian
  TGI: 96.9 µM
BT-549 breast
  TGI: 21.6 µM
HT29 colon
  TGI: 44.5 µM
MOLT-4 leukemia
  TGI: 6.33 µM
KM12 colon
  TGI: 56.3 µM
A549 NSCLC
  TGI: > 100 µM
EKVX NSCLC
  TGI: > 59.8 µM
NCI/ADR-RES ovarian
  TGI: 50.7 µM
NCI-H460 lung
  TGI: > 100 µM
OVCAR-5 ovarian
  TGI: > 66.7 µM
SK-MEL-28 melanoma
  TGI: 30.7 µM
SNB-19 CNS
  TGI: > 55.1 µM
IGROV1 ovarian
  TGI: 27.1 µM
U251 CNS
  TGI: 30.3 µM
COLO 205 colon
  TGI: 32.7 µM
NCI-H522 lung
  TGI: 3.18 µM
OVCAR-8 ovarian
  TGI: 50.4 µM
MCF7 breast
  TGI: 20.2 µM
SF-268 CNS
  TGI: 41.7 µM
RPMI-8226 leukemia
  TGI: > 61.9 µM
K-562 leukemia
  TGI: 18 µM
SF-295 CNS
  TGI: > 100 µM
HCC-2998 colon
  TGI: 54.3 µM
MDA-N
  TGI: 29 µM
PC-3 prostate
  TGI: 26.9 µM
A498 renal
  TGI: 86.6 µM
HOP-62 NSCLC
  TGI: > 81.7 µM
NCI-H23 lung
  TGI: 36.5 µM
DU-145 prostate
  TGI: > 100 µM
SN12C renal
  TGI: 44.9 µM
HL-60(TB) leukemia
  TGI: > 39.1 µM
SK-MEL-2 melanoma
  TGI: 39.6 µM
RXF 393 renal
  TGI: 28.7 µM
ACHN renal
  TGI: 27 µM
M14 melanoma
  TGI: 15.7 µM

## O=[N+]([O-])O
LOX IMVI melanoma
  TGI: > 100 µM
T-47D breast
  TGI: > 100 µM
NCI-H226 lung
  TGI: > 100 µM
HCT-116 colon
  TGI: > 100 µM
UACC-257 melanoma
  TGI: > 100 µM
UACC-62 melanoma
  TGI: > 100 µM
HS 578T breast
  TGI: > 100 µM
MDA-MB-435
  TGI: > 100 µM
UO-31 renal
  TGI: > 100 µM
OVCAR-4 ovarian
  TGI: > 100 µM
HCT-15 colon
  TGI: > 100 µM
SNB-75 CNS
  TGI: > 100 µM
OVCAR-3 ovarian
  TGI: > 100 µM
TK-10 renal
  TGI: > 100 µM
MALME-3M melanoma
  TGI: > 100 µM
SR leukemia
  TGI: > 100 µM
SW-620 colon
  TGI: > 100 µM
SF-539 CNS
  TGI: > 100 µM
CCRF-CEM leukemia
  TGI: > 100 µM
CAKI-1 renal
  TGI: > 100 µM
SK-MEL-5 melanoma
  TGI: > 100 µM
MDA-MB-231 breast
  TGI: > 100 µM
786-0 renal
  TGI: > 100 µM
HOP-92 NSCLC
  TGI: > 100 µM
SK-OV-3 ovarian
  TGI: > 100 µM
BT-549 breast
  TGI: > 100 µM
HT29 colon
  TGI: > 100 µM
MOLT-4 leukemia
  TGI: > 100 µM
KM12 colon
  TGI: > 100 µM
A549 NSCLC
  TGI: > 100 µM
EKVX NSCLC
  TGI: > 100 µM
NCI/ADR-RES ovarian
  TGI: > 100 µM
NCI-H460 lung
  TGI: > 100 µM
OVCAR-5 ovarian
  TGI: > 100 µM
SK-MEL-28 melanoma
  TGI: > 100 µM
SNB-19 CNS
  TGI: > 100 µM
IGROV1 ovarian
  TGI: > 100 µM
U251 CNS
  TGI: > 100 µM
COLO 205 colon
  TGI: > 100 µM
NCI-H522 lung
  TGI: > 100 µM
OVCAR-8 ovarian
  TGI: > 100 µM
MCF7 breast
  TGI: > 100 µM
SF-268 CNS
  TGI: > 100 µM
RPMI-8226 leukemia
  TGI: > 100 µM
K-562 leukemia
  TGI: > 100 µM
SF-295 CNS
  TGI: > 100 µM
HCC-2998 colon
  TGI: > 100 µM
MDA-N
  TGI: > 100 µM
PC-3 prostate
  TGI: > 100 µM
A498 renal
  TGI: > 100 µM
HOP-62 NSCLC
  TGI: > 100 µM
NCI-H23 lung
  TGI: > 100 µM
DU-145 prostate
  TGI: > 100 µM
SN12C renal
  TGI: > 100 µM
HL-60(TB) leukemia
  TGI: > 100 µM
SK-MEL-2 melanoma
  TGI: > 100 µM
RXF 393 renal
  TGI: > 100 µM
ACHN renal
  TGI: > 100 µM
M14 melanoma
  TGI: > 100 µM

Source: PubChem BioAssay (NCI)
